Data as given in patent US12209102B2, “Heterocyclic compounds and uses thereof” (Kumquat Biosciences Inc., priority 2022, dated 2025).

Experiments:
Format in all cases: biochemical
K-Ras G12D = biological target: T1, K-Ras G12D (Homo sapiens, UniProt P01116, G12D); assay: HTRF resonance energy transfer assay, K-Ras G12D / SOS1 interaction; conditions: HTRF assay of Example 5; read-out: IC50 against K-Ras G12D
T1 construct: made in house; host or cells: E. coli BL21 (DE3)
Text: This assay can be also used to assess a selective inhibition or reduction of signaling output of a mutant Ras protein relative to a wildtype, or relative to a different mutant Ras protein. For example, the equilibrium interaction of wildtype Kras or K-Ras mutant (e.g., wildtype or a mutant thereof) with SOS1 (e.g., hSOS1) can be assessed as a proxy or an indication for a subject compound's ability to bind and inhibit Ras protein. HTRF assay detects from (i) a fluorescence resonance energy transfer (FRET) donor (e.g., antiGST-Europium) that is bound to GST-tagged K-Ras mutant to (ii) a FRET acceptor (e.g., anti-6His-XL665) bound to a His-tagged hSOS1.
The assay buffer can contain˜5 mM HEPES pH 7.4, ˜150 mM NaCl, ˜ 1 mM DTT, 0.05% BSA and 0.0025%(v/v) Igepal. A Ras working solution is prepared in an assay buffer containing typically a suitable amount of the protein construct (e.g., GST-tagged K-Ras mutant) and the FRET donor (e.g., antiGST-Eu(K) from Cisbio, France). A SOS1 working solution is prepared in an assay buffer containing suitable amount of the protein construct (e.g., His-hSOS1) and the FRET acceptor (e.g., anti-6His-XL665 from Cisbio, France). A suitable amount of the protein construct will depend on the range of activity or range of IC50 values being detected or under investigation. For detecting IC50 within a range of 500 nM, the protein constructs of the same range of molarity can be utilized.
A fixed volume of DMSO with or without test compound is transferred into a 384-well plate. Ras working solution is added to all wells of the test plate. SOS1 working solution is added to all wells except for those that are subsequently filled the inhibitor control solution. Upon incubation for about 10 minutes or longer, the fluorescence is measured with a M1000Pro plate reader (Tecan) using HTRF detection (excitation 337 nm, emission 1: 620 nm, emission 2: 665 nm). Compounds are tested in duplicates at different concentrations (for example, 10 μM, 2.5 μM, 0.63 μM, 0.16 μM, 0.04 μM, 0.01 μM test compound). The ratiometric data (i.e., emission 2 divided by emission 1) is used to calculate IC50 values against Ras using GraphPad Prism (GraphPad software). Following this general procedure, samples were tested with or without a subject compound disclosed herein including compounds exemplified in Table 1 to assess their abilities to inhibit a K-Ras mutant relative to another mutant or WT. Signaling output measured in terms of IC50 values can be obtained, a ratio of IC50 against one mutant relative to another mutant can be calculated. For instance, a selective reduction of K-Ras G12D signaling output can be evidenced by a ratio greater than one. In particular, a selective reduction of K-Ras G12D signaling relative to K-Ras WT signaling is evidenced as the ratio of IC50 (against K-Ras WT) to IC50 (against K-Ras G12D) is greater than 1.

K-Ras G12S = biological target: T2, K-Ras G12S (Homo sapiens, UniProt P01116, G12S); assay: HTRF resonance energy transfer assay, K-Ras G12S / SOS1 interaction; conditions: HTRF assay of Example 5; read-out: IC50 against K-Ras G12S
T2 construct: made in house; host or cells: E. coli BL21 (DE3)
Summary of the method: (§1)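 Read-out: HTRF 665/620 nm ratio (excitation 337 nm) after roughly 10 min or longer incubation, used to derive IC50. Donor anti-GST-Eu on GST-K-Ras; acceptor anti-6His-XL665 on His-hSOS1. Duplicate dose series from 10 μM down to 0.01 μM.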

K-Ras G12V = biological target: T3, K-Ras G12V (Homo sapiens, UniProt P01116, G12V); assay: HTRF resonance energy transfer assay, K-Ras G12V / SOS1 interaction; conditions: HTRF assay of Example 5; read-out: IC50 against K-Ras G12V
T3 construct: made in house; host or cells: E. coli BL21 (DE3)
Summary of the method: as §1

K-Ras WT = biological target: T4, K-Ras WT (Homo sapiens, UniProt P01116); assay: HTRF resonance energy transfer assay, K-Ras WT / SOS1 interaction; conditions: HTRF assay of Example 5; read-out: IC50 against K-Ras WT
T4 construct: made in house; host or cells: E. coli BL21 (DE3)
Summary of the method: as §1

T4 sequence (P01116 1-188 isoform P01116-2): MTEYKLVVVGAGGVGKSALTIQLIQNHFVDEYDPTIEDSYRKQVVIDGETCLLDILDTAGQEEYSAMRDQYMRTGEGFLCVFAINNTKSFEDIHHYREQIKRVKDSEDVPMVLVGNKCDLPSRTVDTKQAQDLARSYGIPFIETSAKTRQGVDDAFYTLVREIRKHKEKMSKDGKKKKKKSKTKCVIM
T2 sequence (P01116 1-188 isoform P01116-2 G12S): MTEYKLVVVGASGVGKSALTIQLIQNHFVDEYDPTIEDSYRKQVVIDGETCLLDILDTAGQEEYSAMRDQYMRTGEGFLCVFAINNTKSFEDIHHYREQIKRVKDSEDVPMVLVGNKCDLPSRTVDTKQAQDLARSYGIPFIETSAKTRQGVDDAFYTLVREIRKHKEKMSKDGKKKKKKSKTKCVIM
T3 sequence (P01116 1-188 isoform P01116-2 G12V): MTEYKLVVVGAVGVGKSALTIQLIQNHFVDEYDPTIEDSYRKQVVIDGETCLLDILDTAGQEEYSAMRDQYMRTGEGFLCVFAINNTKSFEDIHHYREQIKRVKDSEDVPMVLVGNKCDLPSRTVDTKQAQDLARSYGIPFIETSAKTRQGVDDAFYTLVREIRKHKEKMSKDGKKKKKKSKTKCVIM
T1 sequence (P01116 1-188 isoform P01116-2 G12D): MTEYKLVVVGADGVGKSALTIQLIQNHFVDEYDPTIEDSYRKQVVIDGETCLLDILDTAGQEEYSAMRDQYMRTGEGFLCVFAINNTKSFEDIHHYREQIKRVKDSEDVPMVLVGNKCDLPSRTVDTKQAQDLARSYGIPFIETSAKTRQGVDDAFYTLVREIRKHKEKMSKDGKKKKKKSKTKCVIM

| Compound | IC50 (K-Ras G12D) | IC50 (K-Ras G12S) | IC50 (K-Ras G12V) | IC50 (K-Ras WT) |
| --- | --- | --- | --- | --- |
| Cn1nc(NC(=O)C2CN2)cc1CN1CCOc2c(Cl)c(-c3ccc(F)c4sc(N)c(C#N)c34)c(F)c3nc(OC[C@@]45CCCN4C[C@H](F)C5)nc1c23 (stereo partly drawn) [Compound 999, N-(5-((9-(2-amino-3-cyano-7-fluorobenzo[b]thiophen-4-yl)-8-chloro-10-fluoro-2-(((2R,7aS)-2-fluorotetrahydro-1H-pyrrolizin-7a(5H)-yl)methoxy)-5,6-dihydro-4H-[1,4]oxazepino[5,6,7-de]quinazolin-4-yl)methyl)-1-methyl-1H-pyrazol-3-yl)aziridine-2-carboxamide] | < 100 nM | < 100 nM | < 100 nM | < 100 nM |
| CC(O)C1COc2c(Cl)c(-c3ccc(F)c4sc(N)c(C#N)c34)c(F)c3nc(OC[C@@]45CCCN4C[C@H](F)C5)nc(c23)N1CC1(N(C)C)CCC1 (stereo partly drawn) [Compound 773, 2-amino-4-(8-chloro-4-((1-(dimethylamino)cyclobutyl)methyl)-10-fluoro-2-(((2R,7aS)-2-fluorotetrahydro-1H-pyrrolizin-7a(5H)-yl)methoxy)-5-(1-hydroxyethyl)-5,6-dihydro-4H-[1,4]oxazepino[5,6,7-de]quinazolin-9-yl)-7-fluorobenzo[b]thiophene-3-carbonitrile] | < 100 nM | < 100 nM | < 100 nM | < 100 nM |
| CC1Oc2c(Cl)c(-c3ccc(F)c4sc(N)c(C#N)c34)c(F)c3nc(OC[C@@]45CCCN4C[C@H](F)C5)nc(c23)N(CC(F)F)C1CC#N (stereo partly drawn) [Compound 968, 2-amino-4-(8-chloro-5-(cyanomethyl)-4-(2,2-difluoroethyl)-10-fluoro-2-(((2R,7aS)-2-fluorotetrahydro-1H-pyrrolizin-7a(5H)-yl)methoxy)-6-methyl-5,6-dihydro-4H-[1,4]oxazepino[5,6,7-de]quinazolin-9-yl)-7-fluorobenzo[b]thiophene-3-carbonitrile] | < 100 nM | < 100 nM | < 100 nM | < 100 nM |
| N#Cc1c(N)sc2c(F)ccc(-c3c(Cl)c4c5c(nc(OC[C@@]67CCCN6C[C@H](F)C7)nc5c3F)N(CC3CC3C#N)CCO4)c12 (stereo partly drawn) [Compound 738, 2-amino-4-(8-chloro-4-((2-cyanocyclopropyl)methyl)-10-fluoro-2-(((2R,7aS)-2-fluorotetrahydro-1H-pyrrolizin-7a(5H)-yl)methoxy)-5,6-dihydro-4H-[1,4]oxazepino[5,6,7-de]quinazolin-9-yl)-7-fluorobenzo[b]thiophene-3-carbonitrile] | < 100 nM | < 100 nM | < 100 nM | < 100 nM |
| N#Cc1c(N)sc2c(F)ccc(-c3c(Cl)c4c5c(nc(OC[C@@]67CCCN6C[C@H](F)C7)nc5c3F)N([C@H]3CCNC3)CCO4)c12 [Compound 858, 2-amino-4-(8-chloro-10-fluoro-2-(((2R,7aS)-2-fluorotetrahydro-1H-pyrrolizin-7a(5H)-yl)methoxy)-4-((S)-pyrrolidin-3-yl)-5,6-dihydro-4H-[1,4]oxazepino[5,6,7-de]quinazolin-9-yl)-7-fluorobenzo[b]thiophene-3-carbonitrile] | < 100 nM | < 100 nM | < 100 nM | < 100 nM |
| CN(CCCN1CCOc2c(Cl)c(-c3ccc(F)c4sc(N)c(C#N)c34)c(F)c3nc(OC[C@@]45CCCN4C[C@H](F)C5)nc1c23)C(=O)[C@H]1CN1 [Compound 908, (2R)-N-(3-(9-(2-amino-3-cyano-7-fluorobenzo[b]thiophen-4-yl)-8-chloro-10-fluoro-2-(((2R,7aS)-2-fluorotetrahydro-1H-pyrrolizin-7a(5H)-yl)methoxy)-5,6-dihydro-4H-[1,4]oxazepino[5,6,7-de]quinazolin-4-yl)propyl)-N-methylaziridine-2-carboxamide] | < 100 nM | < 100 nM | < 100 nM | < 100 nM |
| CNCCCN1c2nc(OC[C@@]34CCCN3C[C@H](F)C4)nc3c(F)c(-c4ccc(F)c5sc(N)c(C#N)c45)c(Cl)c(c23)OCC1CC#N (stereo partly drawn) [Compound 928, 2-amino-4-(8-chloro-5-(cyanomethyl)-10-fluoro-2-(((2R,7aS)-2-fluorotetrahydro-1H-pyrrolizin-7a(5H)-yl)methoxy)-4-(3-(methylamino)propyl)-5,6-dihydro-4H-[1,4]oxazepino[5,6,7-de]quinazolin-9-yl)-7-fluorobenzo[b]thiophene-3-carbonitrile] | < 100 nM | < 100 nM | < 100 nM | < 100 nM |

Continued, values first:

| IC50 (K-Ras G12D) | IC50 (K-Ras G12S) | IC50 (K-Ras G12V) | IC50 (K-Ras WT) | Compound |
| --- | --- | --- | --- | --- |
| < 100 nM | < 100 nM | < 100 nM | < 100 nM | CC(O)C1COc2c(Cl)c(-c3ccc(F)c4sc(N)c(C#N)c34)c(F)c3nc(OC[C@@]45CCCN4C[C@H](F)C5)nc(c23)N1CC1CNC1 (stereo partly drawn) [Compound 848, 2-amino-4-(4-(azetidin-3-ylmethyl)-8-chloro-10-fluoro-2-(((2R,7aS)-2-fluorotetrahydro-1H-pyrrolizin-7a(5H)-yl)methoxy)-5-(1-hydroxyethyl)-5,6-dihydro-4H-[1,4]oxazepino[5,6,7-de]quinazolin-9-yl)-7-fluorobenzo[b]thiophene-3-carbonitrile] |
| < 100 nM | < 100 nM | < 100 nM | < 100 nM | N#Cc1c(N)sc2c(F)ccc(-c3c(Cl)c4c5c(nc(OC[C@@]67CCCN6C[C@H](F)C7)nc5c3F)N(CC(F)F)C(C3CNC3)CO4)c12 (stereo partly drawn) [Compound 1131, 2-amino-4-(5-(azetidin-3-yl)-8-chloro-4-(2,2-difluoroethyl)-10-fluoro-2-(((2R,7aS)-2-fluorotetrahydro-1H-pyrrolizin-7a(5H)-yl)methoxy)-5,6-dihydro-4H-[1,4]oxazepino[5,6,7-de]quinazolin-9-yl)-7-fluorobenzo[b]thiophene-3-carbonitrile] |
| < 100 nM | < 100 nM | < 100 nM | < 100 nM | C/C=C\[C@H]1COc2c(Cl)c(-c3ccc(F)c4sc(N)c(C#N)c34)c(F)c3nc(OC[C@@]45CCCN4C[C@H](F)C5)nc(c23)N1CC(F)F [Compound 1032, 2-amino-4-((5S)-8-chloro-4-(2,2-difluoroethyl)-10-fluoro-2-(((2R,7aS)-2-fluorotetrahydro-1H-pyrrolizin-7a(5H)-yl)methoxy)-5-((Z)-prop-1-en-1-yl)-5,6-dihydro-4H-[1,4]oxazepino[5,6,7-de]quinazolin-9-yl)-7-fluorobenzo[b]thiophene-3-carbonitrile] |
| < 100 nM | < 100 nM | < 100 nM | < 100 nM | CN1c2nc(OC[C@@]34CCCN3C[C@H](F)C4)nc3c(F)c(-c4ccc(F)c5sc(N)c(C#N)c45)c(Cl)c(c23)OC[C@@H]1CNC(=O)C(F)F [Compound 1018, N-(((5S)-9-(2-amino-3-cyano-7-fluorobenzo[b]thiophen-4-yl)-8-chloro-10-fluoro-2-(((2R,7aS)-2-fluorotetrahydro-1H-pyrrolizin-7a(5H)-yl)methoxy)-4-methyl-5,6-dihydro-4H-[1,4]oxazepino[5,6,7-de]quinazolin-5-yl)methyl)-2,2-difluoroacetamide] |
